# Columns and labels:
# CK2 = CK2 (Homo sapiens, UniProt P68400); assay: CK2 inhibition, biochemical chemiluminescence holoenzyme assay (Kinase Glo, IC50 determination); conditions: Table 1 activity class; symbol given only if active; read-out: CK2 IC50 (Activity C)
# How it was run: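 Holoenzyme CK2 assay; compounds pre-incubated with substrate and enzyme, then reacted 150 min at 24-27° C. Remaining ATP measured as luminescence with Kinase Glo, and IC50 derived from the signal.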
# [1] = target: PIM (PIM-1, PIM-2, and/or PIM-3); assay: PIM-1, PIM-2 and PIM-3 inhibition, biochemical chemiluminescence assays (Kinase Glo, IC50 determination); conditions: Table 1 activity class; PIM refers to PIM-1, PIM-2, and/or PIM-3; read-out: PIM IC50 (Activity B)
# CK2, sequence (P68400 whole entry): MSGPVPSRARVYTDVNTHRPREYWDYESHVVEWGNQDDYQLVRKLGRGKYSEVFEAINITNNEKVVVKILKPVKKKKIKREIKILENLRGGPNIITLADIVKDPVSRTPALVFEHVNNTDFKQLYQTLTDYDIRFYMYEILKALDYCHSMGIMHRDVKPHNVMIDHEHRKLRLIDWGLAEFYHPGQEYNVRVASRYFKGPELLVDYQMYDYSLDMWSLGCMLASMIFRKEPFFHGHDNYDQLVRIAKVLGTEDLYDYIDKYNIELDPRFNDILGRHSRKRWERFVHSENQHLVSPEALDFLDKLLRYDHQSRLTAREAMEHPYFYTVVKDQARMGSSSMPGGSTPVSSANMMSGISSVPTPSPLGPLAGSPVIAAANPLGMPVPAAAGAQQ
# CK2, sequence (P67870 whole entry partner): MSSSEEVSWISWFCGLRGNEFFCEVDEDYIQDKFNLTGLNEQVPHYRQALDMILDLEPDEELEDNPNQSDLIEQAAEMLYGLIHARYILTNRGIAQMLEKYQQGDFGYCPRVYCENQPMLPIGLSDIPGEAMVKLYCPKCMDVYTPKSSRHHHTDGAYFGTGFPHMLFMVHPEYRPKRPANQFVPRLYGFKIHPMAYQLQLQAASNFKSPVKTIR
SMILES,IC50 (CK2),IC50 [1]
"O=C(c1ccccc1)N1CCC(c2nc3c(oc4ccc(Br)cc43)c(=O)[nH]2)CC1 [Compound 234, 8-bromo-2-[1-(phenylcarbonyl)piperidin-4-yl][1]benzofuro[3,2-d]pyrimidin-4(3H)-one]",< 10 µM,< 10 µM
"O=C(c1ccncc1)N1CCC(c2nc3c(oc4ccc(Br)cc43)c(=O)[nH]2)CC1 [Compound 236, 8-bromo-2-[1-(pyridin-4-ylcarbonyl)piperidin-4-yl][1]benzofuro[3,2-d]pyrimidin-4(3H)-one]",< 10 µM,< 10 µM
"O=C(Cc1ccccc1)N1CCC(c2nc3c(oc4ccc(Br)cc43)c(=O)[nH]2)CC1 [Compound 237, 8-bromo-2-[1-(phenylacetyl)piperidin-4-yl][1]benzofuro[3,2-d]pyrimidin-4(3H)-one]",< 10 µM,< 10 µM
"O=c1[nH]c(CN2CCC(c3ccccc3)CC2)nc2c1oc1ccc(Br)cc12 [Compound 238, 8-bromo-2-[(4-phenylpiperidin-1-yl)methyl][1]benzofuro[3,2-d]pyrimidin-4(3H)-one]",< 10 µM,< 10 µM
"O=c1[nH]c(CNCc2ccccc2)nc2c1oc1ccc(Br)cc12 [Compound 239, 8-bromo-2-{[(phenylmethyl)amino]methyl}[1]benzofuro[3,2-d]pyrimidin-4(3H)-one]",< 10 µM,< 10 µM
"O=c1[nH]c(CN2CCN(c3cccnc3)CC2)nc2c1oc1ccc(Br)cc12 [Compound 240, 8-bromo-2-[(4-pyridin-3-ylpiperazin-1-yl)methyl][1]benzofuro[3,2-d]pyrimidin-4(3H)-one]",< 10 µM,< 10 µM
"O=c1[nH]c(CNC2CCc3ccccc32)nc2c1oc1ccc(Br)cc12 (stereo not drawn) [Compound 241, 8-bromo-2-[(2,3-dihydro-1H-inden-1-ylamino)methyl][1]benzofuro[3,2-d]pyrimidin-4(3H)-one]",< 10 µM,< 10 µM
"Nc1ncc(Cl)c(-c2nc3c(oc4ccc(Br)cc43)c(=O)[nH]2)n1 [Compound 243, 2-(2-amino-5-chloropyrimidin-4-yl)-8-bromo[1]benzofuro[3,2-d]pyrimidin-4(3H)-one]",< 10 µM,< 10 µM
"CN1CCC(Cc2nc3c(oc4ccc(Br)cc43)c(=O)[nH]2)CC1 [Compound 244, 8-bromo-2-[(1-methylpiperidin-4-yl)methyl][1]benzofuro[3,2-d]pyrimidin-4(3H)-one]",< 10 µM,< 10 µM
"CCN(CC)CC(=O)N1CCN(c2nc3c(oc4ccc(Br)cc43)c(=O)[nH]2)CC1 [Compound 245, 8-bromo-2-[4-(N,N-diethylglycyl)piperazin-1-yl][1]benzofuro[3,2-d]pyrimidin-4(3H)-one]",< 10 µM,< 10 µM
"CN(C)CCCN1CCN(c2nc3c(oc4ccc(Br)cc43)c(=O)[nH]2)CC1 [Compound 246, 8-bromo-2-{4-[3-(dimethylamino)propyl]piperazin-1-yl}[1]benzofuro[3,2-d]pyrimidin-4(3H)-one]",< 10 µM,< 10 µM
"O=c1[nH]c(CN2CCN(CCO)CC2)nc2c1oc1ccc(Br)cc12 [Compound 247, 8-bromo-2-{[4-(2-hydroxyethyl)piperazin-1-yl]methyl}[1]benzofuro[3,2-d]pyrimidin-4(3H)-one]",< 10 µM,< 10 µM
"O=C(Nc1ccc(-c2nc3c(oc4ccc(Br)cc43)c(=O)[nH]2)c(Cl)c1)c1ccccc1 [Compound 249, N-[4-(8-bromo-4-oxo-3,4-dihydro[1]benzofuro[3,2-d]pyrimidin-2-yl)-3-chlorophenyl]benzamide]",< 10 µM,< 10 µM
"O=C(Nc1ccc(-c2nc3c(oc4ccc(Br)cc43)c(=O)[nH]2)c(Cl)c1)C1CCCCC1 [Compound 250, N-[4-(8-bromo-4-oxo-3,4-dihydro[1]benzofuro[3,2-d]pyrimidin-2-yl)-3-chlorophenyl]cyclohexanecarboxamide]",< 10 µM,< 10 µM
"O=C(Nc1ccc(-c2nc3c(oc4ccc(Br)cc43)c(=O)[nH]2)c(Cl)c1)C1CCCC1 [Compound 251, N-[4-(8-bromo-4-oxo-3,4-dihydro[1]benzofuro[3,2-d]pyrimidin-2-yl)-3-chlorophenyl]cyclopentanecarboxamide]",< 10 µM,< 10 µM
"O=c1[nH]c(CN2CCC(Cc3ccccc3)CC2)nc2c1oc1ccc(Br)cc12 [Compound 253, 8-bromo-2-{[4-(phenylmethyl)piperidin-1-yl]methyl}[1]benzofuro[3,2-d]pyrimidin-4(3H)-one]",< 10 µM,< 10 µM
"O=c1[nH]c(CNCc2ccccn2)nc2c1oc1ccc(Br)cc12 [Compound 254, 8-bromo-2-{[(pyridin-2-ylmethyl)amino]methyl}[1]benzofuro[3,2-d]pyrimidin-4(3H)-one]",< 10 µM,< 10 µM

SMILES,IC50 (CK2),IC50 [1]
"COc1cccc(CNCc2nc3c(oc4ccc(Br)cc43)c(=O)[nH]2)c1 [Compound 255, 8-bromo-2-[({[3-(methyloxy)phenyl]methyl}amino)methyl][1]benzofuro[3,2-d]pyrimidin-4(3H)-one]",< 10 µM,< 10 µM
"O=c1[nH]c(CNCc2cccc(Cl)c2)nc2c1oc1ccc(Br)cc12 [Compound 256, 8-bromo-2-({[(3-chlorophenyl)methyl]amino}methyl)[1]benzofuro[3,2-d]pyrimidin-4(3H)-one]",< 10 µM,< 10 µM
"O=c1[nH]c(CN2CCC(N3CCOCC3)CC2)nc2c1oc1ccc(Br)cc12 [Compound 257, 8-bromo-2-[(4-morpholin-4-ylpiperidin-1-yl)methyl][1]benzofuro[3,2-d]pyrimidin-4(3H)-one]",< 10 µM,< 10 µM
"O=c1[nH]c(CNCc2ccco2)nc2c1oc1ccc(Br)cc12 [Compound 258, 8-bromo-2-{[(furan-2-ylmethyl)amino]methyl}[1]benzofuro[3,2-d]pyrimidin-4(3H)-one]",< 10 µM,< 10 µM
"O=c1[nH]c(CN2CCN(c3ccccc3)CC2)nc2c1oc1ccc(Br)cc12 [Compound 260, 8-bromo-2-[(4-phenylpiperazin-1-yl)methyl][1]benzofuro[3,2-d]pyrimidin-4(3H)-one]",< 10 µM,< 10 µM
"COc1ccc(CNCc2nc3c(oc4ccc(Br)cc43)c(=O)[nH]2)cc1 [Compound 261, 8-bromo-2-[({[4-(methyloxy)phenyl]methyl}amino)methyl][1]benzofuro[3,2-d]pyrimidin-4(3H)-one]",< 10 µM,< 10 µM
"O=c1[nH]c(CNC2Cc3ccccc3C2)nc2c1oc1ccc(Br)cc12 [Compound 263, 8-bromo-2-[(2,3-dihydro-1H-inden-2-ylamino)methyl][1]benzofuro[3,2-d]pyrimidin-4(3H)-one]",< 10 µM,< 10 µM
"O=C(C1CCN(Cc2nc3c(oc4ccc(Br)cc43)c(=O)[nH]2)C1)N1CCOCC1 (stereo not drawn) [Compound 267, 8-bromo-2-{[3-(morpholin-4-ylcarbonyl)pyrrolidin-1-yl]methyl}[1]benzofuro[3,2-d]pyrimidin-4(3H)-one]",< 10 µM,< 10 µM
"COc1ccccc1CNCc1nc2c(oc3ccc(Br)cc32)c(=O)[nH]1 [Compound 268, 8-bromo-2-[({[2-(methyloxy)phenyl]methyl}amino)methyl][1]benzofuro[3,2-d]pyrimidin-4(3H)-one]",< 10 µM,< 10 µM
"O=C(NCc1ccc(Cl)cc1)C1CCN(Cc2nc3c(oc4ccc(Br)cc43)c(=O)[nH]2)C1 (stereo not drawn) [Compound 271, 1-[(8-bromo-4-oxo-3,4-dihydro[1]benzofuro[3,2-d]pyrimidin-2-yl)methyl]-N-[(4-chlorophenyl)methyl]pyrrolidine-3-carboxamide]",< 10 µM,< 10 µM
"O=C(C1CCN(Cc2nc3c(oc4ccc(Br)cc43)c(=O)[nH]2)C1)N1CCC(O)CC1 (stereo not drawn) [Compound 272, 8-bromo-2-({3-[(4-hydroxypiperidin-1-yl)carbonyl]pyrrolidin-1-yl}methyl)[1]benzofuro[3,2-d]pyrimidin-4(3H)-one]",< 10 µM,< 10 µM
"Cc1cc(C(=O)Nc2ccc(-c3nc4c(oc5ccc(Br)cc54)c(=O)[nH]3)c(Cl)c2)cc(Cl)n1 [Compound 274, N-[4-(8-bromo-4-oxo-3,4-dihydro[1]benzofuro[3,2-d]pyrimidin-2-yl)-3-chlorophenyl]-2-chloro-6-methylpyridine-4-carboxamide]",< 10 µM,< 10 µM
"O=C(Nc1ccc(-c2nc3c(oc4ccc(Br)cc43)c(=O)[nH]2)c(Cl)c1)c1ccc(Cl)cc1 [Compound 279, N-[4-(8-bromo-4-oxo-3,4-dihydro[1]benzofuro[3,2-d]pyrimidin-2-yl)-3-chlorophenyl]-4-chlorobenzamide]",< 10 µM,< 10 µM
"O=C(Nc1ccc(-c2nc3c(oc4ccc(Br)cc43)c(=O)[nH]2)c(Cl)c1)c1cccc(Cl)c1 [Compound 280, N-[4-(8-bromo-4-oxo-3,4-dihydro[1]benzofuro[3,2-d]pyrimidin-2-yl)-3-chlorophenyl]-3-chlorobenzamide]",< 10 µM,< 10 µM
"COc1cccc(C(=O)Nc2ccc(-c3nc4c(oc5ccc(Br)cc54)c(=O)[nH]3)c(Cl)c2)c1 [Compound 281, N-[4-(8-bromo-4-oxo-3,4-dihydro[1]benzofuro[3,2-d]pyrimidin-2-yl)-3-chlorophenyl]-3-(methyloxy)benzamide]",< 10 µM,< 10 µM
"C[C@H](c1ccccc1)N1C[C@H](c2nc3c(oc4ccc(Br)cc43)c(=O)[nH]2)CC1=O [Compound 282, 8-bromo-2-{(3R)-5-oxo-1-[(1R)-1-phenylethyl]pyrrolidin-3-yl}[1]benzofuro[3,2-d]pyrimidin-4(3H)-one]",< 10 µM,< 10 µM
